Assay [1] deals with T1, Recombinant JAK1 (Homo sapiens, UniProt P23458).
T1 construct: purchased Carna Biosciences
In words: JAK biochemical assay (LANCE Ultra TR-FRET), JAK1. Conditions: recombinant JAK1, TR-FRET; read-out: Biochemical Assay (μM) JAK1. The method, then: (§1) Recombinant JAK1, JAK2, JAK3 and TYK2 (Carna Biosciences) were used to develop biochemical assays in 50 mM HEPES pH 7.5, 1 mM EGTA, 10 mM MgCl2, 2 mM DTT and 0.01% Tween-20. […] The intensity of the light emission is proportional to the level of ULight substrate phosphorylation. Compounds which interfere with JAK enzyme activity show a lesser substrate phosphorylation and values are projected in terms of % inhibition in comparison to vehicle control.
For orientation: Time-resolved FRET reads energy transfer from a long-lived donor to a nearby acceptor.

The target in assay [2] is T2, Recombinant JAK2 (Homo sapiens, UniProt O60674).
T2 construct: purchased Carna Biosciences
T2 sequence (O60674 whole entry): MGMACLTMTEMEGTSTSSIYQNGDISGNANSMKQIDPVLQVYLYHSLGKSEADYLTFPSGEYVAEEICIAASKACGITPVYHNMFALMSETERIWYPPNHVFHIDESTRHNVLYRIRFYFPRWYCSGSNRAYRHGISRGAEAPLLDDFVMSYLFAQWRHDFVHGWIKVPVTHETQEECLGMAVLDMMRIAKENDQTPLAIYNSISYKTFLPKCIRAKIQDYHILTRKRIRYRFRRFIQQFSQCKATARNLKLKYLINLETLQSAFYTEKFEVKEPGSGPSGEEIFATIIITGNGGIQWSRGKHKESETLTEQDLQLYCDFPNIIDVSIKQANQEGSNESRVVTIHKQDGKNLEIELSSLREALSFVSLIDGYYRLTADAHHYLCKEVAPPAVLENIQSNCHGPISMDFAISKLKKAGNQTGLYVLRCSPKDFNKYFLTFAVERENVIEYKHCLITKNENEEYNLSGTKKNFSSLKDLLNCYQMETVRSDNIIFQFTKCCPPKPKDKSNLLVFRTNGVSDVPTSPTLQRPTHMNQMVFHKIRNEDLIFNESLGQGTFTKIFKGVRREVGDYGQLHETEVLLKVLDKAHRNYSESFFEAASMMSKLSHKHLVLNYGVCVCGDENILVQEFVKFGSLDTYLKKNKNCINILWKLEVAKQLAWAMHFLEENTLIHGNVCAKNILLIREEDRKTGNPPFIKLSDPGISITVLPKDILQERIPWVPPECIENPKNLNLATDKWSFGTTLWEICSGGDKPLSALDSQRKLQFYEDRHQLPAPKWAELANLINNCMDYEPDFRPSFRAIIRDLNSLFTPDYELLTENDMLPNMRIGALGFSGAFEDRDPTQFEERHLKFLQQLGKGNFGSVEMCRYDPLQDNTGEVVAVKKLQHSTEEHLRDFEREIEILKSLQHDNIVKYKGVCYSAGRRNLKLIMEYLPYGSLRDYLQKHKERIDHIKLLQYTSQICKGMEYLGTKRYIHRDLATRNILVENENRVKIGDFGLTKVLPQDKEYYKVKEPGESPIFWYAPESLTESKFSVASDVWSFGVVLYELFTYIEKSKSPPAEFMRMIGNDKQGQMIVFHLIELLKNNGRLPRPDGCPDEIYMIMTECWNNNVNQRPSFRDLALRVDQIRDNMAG
In words: JAK biochemical assay (LANCE Ultra TR-FRET), JAK2. The note with it: recombinant JAK2, TR-FRET; read-out: Biochemical Assay (μM) JAK2. The method, then:
as §1

The target in assay [3] is T3, Recombinant JAK3 (Homo sapiens, UniProt P52333).
T3 construct: purchased Carna Biosciences
T3 sequence (P52333 1-1124): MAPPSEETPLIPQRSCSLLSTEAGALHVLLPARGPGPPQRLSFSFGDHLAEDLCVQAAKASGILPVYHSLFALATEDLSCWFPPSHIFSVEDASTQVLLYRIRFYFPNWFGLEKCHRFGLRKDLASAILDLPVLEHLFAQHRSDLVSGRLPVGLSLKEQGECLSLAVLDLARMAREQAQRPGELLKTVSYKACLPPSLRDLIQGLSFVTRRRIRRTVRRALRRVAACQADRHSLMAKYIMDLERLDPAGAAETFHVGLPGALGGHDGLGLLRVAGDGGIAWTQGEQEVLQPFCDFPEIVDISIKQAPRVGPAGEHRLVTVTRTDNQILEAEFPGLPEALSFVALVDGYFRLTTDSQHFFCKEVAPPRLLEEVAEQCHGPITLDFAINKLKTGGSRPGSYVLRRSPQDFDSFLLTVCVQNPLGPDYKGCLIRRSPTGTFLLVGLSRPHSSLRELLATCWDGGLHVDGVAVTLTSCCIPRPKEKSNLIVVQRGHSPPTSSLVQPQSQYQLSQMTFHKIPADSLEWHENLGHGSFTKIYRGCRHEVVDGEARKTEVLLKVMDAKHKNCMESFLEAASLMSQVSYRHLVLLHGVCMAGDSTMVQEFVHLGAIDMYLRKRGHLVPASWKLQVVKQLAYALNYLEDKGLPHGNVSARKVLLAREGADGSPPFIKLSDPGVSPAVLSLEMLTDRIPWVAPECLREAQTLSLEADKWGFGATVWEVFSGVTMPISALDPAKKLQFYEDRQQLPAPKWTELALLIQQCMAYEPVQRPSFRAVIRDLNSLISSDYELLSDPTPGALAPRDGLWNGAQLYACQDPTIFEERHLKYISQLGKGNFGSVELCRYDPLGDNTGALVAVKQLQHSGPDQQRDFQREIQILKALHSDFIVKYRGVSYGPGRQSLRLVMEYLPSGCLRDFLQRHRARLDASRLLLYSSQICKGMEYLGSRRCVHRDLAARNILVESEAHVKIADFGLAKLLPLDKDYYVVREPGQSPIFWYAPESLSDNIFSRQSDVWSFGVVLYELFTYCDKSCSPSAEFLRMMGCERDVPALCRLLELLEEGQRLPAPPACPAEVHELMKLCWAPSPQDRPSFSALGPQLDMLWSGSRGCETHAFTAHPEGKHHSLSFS
The experiment in a line: JAK biochemical assay (LANCE Ultra TR-FRET), JAK3. Conditions: recombinant JAK3, TR-FRET; read-out: Biochemical Assay (μM) JAK3. The method, then: as §1

Assay [4] concerns the target T4, Recombinant TYK2 (Homo sapiens, UniProt P29597).
T4 construct: purchased Carna Biosciences
The experiment in a line: JAK biochemical assay (LANCE Ultra TR-FRET), TYK2. The note with it: recombinant TYK2, TR-FRET; read-out: Biochemical Assay (μM) TYK2. The method, then: as §1

The source of these data is patent publication US12516056B2, “Compounds for inhibition of janus kinase 1” (MANKIND PHARMA LTD., priority 2019, dated 2026).

T4 sequence (P29597 whole entry): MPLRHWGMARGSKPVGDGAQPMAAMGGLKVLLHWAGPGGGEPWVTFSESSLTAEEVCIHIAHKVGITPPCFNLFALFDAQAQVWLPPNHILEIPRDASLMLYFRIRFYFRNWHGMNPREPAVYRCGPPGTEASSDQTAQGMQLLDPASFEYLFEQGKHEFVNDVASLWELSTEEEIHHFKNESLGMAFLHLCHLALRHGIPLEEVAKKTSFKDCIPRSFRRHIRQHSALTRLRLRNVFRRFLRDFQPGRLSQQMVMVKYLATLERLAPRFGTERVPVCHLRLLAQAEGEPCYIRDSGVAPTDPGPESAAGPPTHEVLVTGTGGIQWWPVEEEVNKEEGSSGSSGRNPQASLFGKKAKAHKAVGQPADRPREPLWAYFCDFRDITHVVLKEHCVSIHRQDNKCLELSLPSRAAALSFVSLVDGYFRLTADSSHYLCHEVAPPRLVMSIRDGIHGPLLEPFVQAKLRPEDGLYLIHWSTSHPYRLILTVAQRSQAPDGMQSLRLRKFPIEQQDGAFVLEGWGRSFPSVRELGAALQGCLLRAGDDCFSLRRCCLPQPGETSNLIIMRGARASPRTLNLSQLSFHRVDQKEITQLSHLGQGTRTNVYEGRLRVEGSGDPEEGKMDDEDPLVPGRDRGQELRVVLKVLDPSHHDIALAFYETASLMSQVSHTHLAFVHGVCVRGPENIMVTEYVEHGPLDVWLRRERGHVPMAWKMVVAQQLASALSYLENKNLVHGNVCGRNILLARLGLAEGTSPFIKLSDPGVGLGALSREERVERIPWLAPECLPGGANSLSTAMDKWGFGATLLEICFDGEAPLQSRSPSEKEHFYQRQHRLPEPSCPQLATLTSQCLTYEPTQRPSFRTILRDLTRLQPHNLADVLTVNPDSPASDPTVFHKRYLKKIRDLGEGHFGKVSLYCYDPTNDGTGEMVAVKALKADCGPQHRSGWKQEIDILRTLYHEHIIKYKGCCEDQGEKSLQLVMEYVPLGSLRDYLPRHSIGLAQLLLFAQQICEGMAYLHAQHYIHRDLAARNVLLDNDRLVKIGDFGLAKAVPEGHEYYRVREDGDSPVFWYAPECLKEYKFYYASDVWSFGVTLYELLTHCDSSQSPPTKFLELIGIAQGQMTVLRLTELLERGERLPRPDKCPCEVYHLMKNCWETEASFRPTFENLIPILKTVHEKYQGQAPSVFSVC
T1 sequence (P23458 whole entry): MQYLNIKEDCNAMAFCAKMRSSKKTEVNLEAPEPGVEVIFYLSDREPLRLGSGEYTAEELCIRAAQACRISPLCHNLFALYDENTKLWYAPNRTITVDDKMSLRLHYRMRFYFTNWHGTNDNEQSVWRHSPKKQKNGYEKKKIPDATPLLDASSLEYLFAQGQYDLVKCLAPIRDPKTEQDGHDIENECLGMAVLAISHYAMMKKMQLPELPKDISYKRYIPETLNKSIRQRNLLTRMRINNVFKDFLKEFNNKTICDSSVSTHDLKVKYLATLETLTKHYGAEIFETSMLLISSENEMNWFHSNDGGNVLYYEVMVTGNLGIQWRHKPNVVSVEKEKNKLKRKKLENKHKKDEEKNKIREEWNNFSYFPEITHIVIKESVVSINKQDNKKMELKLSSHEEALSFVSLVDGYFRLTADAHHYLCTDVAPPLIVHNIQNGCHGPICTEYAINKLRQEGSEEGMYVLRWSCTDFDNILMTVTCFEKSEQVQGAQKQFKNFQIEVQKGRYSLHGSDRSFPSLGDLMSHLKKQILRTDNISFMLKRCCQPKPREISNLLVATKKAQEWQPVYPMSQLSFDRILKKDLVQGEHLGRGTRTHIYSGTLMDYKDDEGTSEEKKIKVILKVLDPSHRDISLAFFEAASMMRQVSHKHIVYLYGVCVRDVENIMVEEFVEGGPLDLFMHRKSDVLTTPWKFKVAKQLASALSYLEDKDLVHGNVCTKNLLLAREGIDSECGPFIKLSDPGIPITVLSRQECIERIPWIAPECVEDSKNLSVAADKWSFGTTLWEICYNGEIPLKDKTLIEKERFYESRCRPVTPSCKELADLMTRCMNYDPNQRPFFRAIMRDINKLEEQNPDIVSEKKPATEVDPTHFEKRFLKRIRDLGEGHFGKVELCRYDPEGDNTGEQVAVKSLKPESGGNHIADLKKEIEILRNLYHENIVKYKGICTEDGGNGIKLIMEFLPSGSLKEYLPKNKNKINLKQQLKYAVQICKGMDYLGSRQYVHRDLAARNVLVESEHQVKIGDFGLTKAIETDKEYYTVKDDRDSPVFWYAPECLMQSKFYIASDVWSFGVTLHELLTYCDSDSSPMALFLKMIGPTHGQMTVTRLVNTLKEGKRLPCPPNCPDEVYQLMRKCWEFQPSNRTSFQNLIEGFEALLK

Regarding `CN1CCC(C(O)c2ccc(-n3cc(-c4ccnc5[nH]cnc45)cn3)nc2)CC1` (stereo not shown) [Example 1165, (6-(4-(3H-imidazo[4,5-b]pyridin-7-yl)-1H-pyrazol-1-yl)pyridin-3-yl)(1-methylpiperidin-4-yl)methanol], the IC50 in assay [1], in assay [2], in assay [3] and in assay [4] was over 1 µM in each case.

In the case of `CCn1c(=O)[nH]c2nccc(-c3cnn(C(=O)NCC(F)(F)F)c3)c21` [Example 1042, 4-(1-ethyl-2,3-dihydro-2-oxo-1H-imidazo[4,5-b]pyridin-7-yl)-N-(2,2,2-trifluoroethyl)-1H-pyrazole-1-carboxamide], the IC50 was over 10 µM in assay [1], over 1 µM in assay [2], over 10 µM in assay [3] and over 10 µM in assay [4].

Turning to `Cc1cc(S(C)(=O)=O)ccc1NC(=O)N1CCN(c2ccnc3[nH]c(=O)[nH]c23)CC1` [Example 1024, 4-(2,3-dihydro-2-oxo-1H-imidazo[4,5-b]pyridin-7-yl)-N-(2-methyl-4-(methylsulfonyl)phenyl)piperazine-1-carboxamide], the IC50 in assay [1], in assay [2], in assay [3] and in assay [4] was over 1 µM in each case.

For the compound `O=S(=O)(CC1CC1)CC(c1ccc(-n2cc(-c3ccnc4[nH]cnc34)cn2)nc1)C(F)(F)F` (stereo not shown) [Example 1205, 7-(1-(5-(3-(cyclopropylmethylsulfonyl)-1,1,1-trifluoropropan-2-yl)pyridin-2-yl)-1H-pyrazol-4-yl)-3H-imidazo[4,5-b]pyridine], the IC50 in assay [1] was under 0.1 µM; in assay [2], over 0.1 µM; in assay [3], over 0.1 µM; in assay [4] it was over 1 µM.

As to `CC(C)(O)CC(c1ccc(-n2cc(-c3ccnc4[nH]cnc34)cn2)nc1)C(F)(F)F` (stereo not shown) [Example 1193, 4-(6-(4-(3H-imidazo[4,5-b]pyridin-7-yl)-1H-pyrazol-1-yl)pyridin-3-yl)-5,5,5-trifluoro-2-methylpentan-2-ol], the IC50 in assay [1] was over 0.1 µM; in assay [2], over 0.5 µM; in assay [3], over 0.1 µM; in assay [4] it was over 1 µM.

For `c1cc(-c2cnn(-c3ccc(CN4CCOCC4)cn3)c2)c2nc[nH]c2n1` [Example 1085, 7-(1-(5-(morpholinomethyl)pyridin-2-yl)-1H-pyrazol-4-yl)-3H-imidazo[4,5-b]pyridine], the IC50 in assay [1] is over 1 µM; in assay [2], over 1 µM; in assay [3], over 1 µM; in assay [4] it was over 10 µM.

With `CC1(C)CN(C(=O)N2CCN(c3ccnc4[nH]c(=O)[nH]c34)CC2)C1` [Example 1023, 7-(4-(3,3-dimethylazetidine-1-carbonyl)piperazin-1-yl)-1,3-dihydro-2H-imidazo[4,5-b]pyridin-2-one], the IC50 in assay [1], in assay [2], in assay [3] and in assay [4] was over 10 µM throughout.

Consider `O=C(Nc1ccncc1)Nc1ccc(-c2ccnc3[nH]c(=O)[nH]c23)cc1` [Example 1009, 1-(4-(2,3-dihydro-2-oxo-1H-imidazo[4,5-b]pyridin-7-yl)phenyl)-3-(pyridin-4-yl)urea], for which the IC50 in assay [1] was over 10 µM; in assay [2], over 0.5 µM; in assay [3], over 1 µM; in assay [4], over 10 µM.

As to `N#CCNC(=O)c1cnc(-n2cc(-c3ccnc4[nH]cnc34)cn2)nc1` [Example 1093, 2-(4-(3H-imidazo[4,5-b]pyridin-7-yl)-1H-pyrazol-1-yl)-N-(cyanomethyl)pyrimidine-5-carboxamide], the IC50 in assay [1] was over 0.5 µM; in assay [2], under 0.5 µM; in assay [3] it was under 0.5 µM; in assay [4], over 10 µM.

Turning to `O=C(Nc1ccnc(F)c1)N1CCN(c2ccnc3[nH]c(=O)[nH]c23)CC1` [Example 1015, N-(2-fluoropyridin-4-yl)-4-(2,3-dihydro-2-oxo-1H-imidazo[4,5-b]pyridin-7-yl)piperazine-1-carboxamide], the IC50 in assay [2], in assay [3] and in assay [4] was over 1 µM throughout.

`FC(F)(F)C(c1ccc(-n2cc(-c3ccnc4[nH]cnc34)cn2)nc1)N1CCOCC1` (stereo not shown) [Example 1137, 7-(1-(5-(2,2,2-trifluoro-1-morpholinoethyl)pyridin-2-yl)-1H-pyrazol-4-yl)-3H-imidazo[4,5-b]pyridine]: the IC50 was over 0.5 µM in assay [2], over 0.5 µM in assay [3] and over 1 µM in assay [4].

In the case of `CN(C)C(c1ccc(-n2cc(-c3ccnc4[nH]cnc34)cn2)nc1)C(F)(F)F` (stereo not shown) [Example 1121, 1-(6-(4-(3H-imidazo[4,5-b]pyridin-7-yl)-1H-pyrazol-1-yl)pyridin-3-yl)-2,2,2-trifluoro-N,N-dimethylethanamine], the IC50 in assay [2] was over 0.1 µM; in assay [3], over 0.1 µM; in assay [4], over 1 µM.

Take `CC(C)(C#N)NC(=O)n1cc(-c2ccnc3[nH]c(=O)[nH]c23)cn1` [Example 1033, N-(2-cyanopropan-2-yl)-4-(2,3-dihydro-2-oxo-1H-imidazo[4,5-b]pyridin-7-yl)-1H-pyrazole-1-carboxamide]: the IC50 in assay [3] and in assay [4] was over 1 µM each time.

Consider `OC(c1ccc(-n2cc(-c3ccnc4[nH]cnc34)cn2)nc1)(C1CCCC1)C(F)(F)F` (stereo not shown) [Example 1132, 1-(6-(4-(3H-imidazo[4,5-b]pyridin-7-yl)-1H-pyrazol-1-yl)pyridin-3-yl)-1-cyclopentyl-2,2,2-trifluoroethanol], for which the figures for the IC50 in assay [2], in assay [3] and in assay [4] were over 0.5 µM, over 0.1 µM and over 1 µM, respectively.

As for `CC(NC(=O)N1CCN(c2ccnc3[nH]c(=O)[nH]c23)CC1)C(F)(F)F` (stereo not shown) [Example 1021, N-(1,1,1-trifluoropropan-2-yl)-4-(2,3-dihydro-2-oxo-1H-imidazo[4,5-b]pyridin-7-yl)piperazine-1-carboxamide], the IC50 in assay [2], in assay [3] and in assay [4] was over 1 µM throughout.

Take `N#CCNC(=O)N1CCN(c2ccnc3[nH]c(=O)[nH]c23)CC1` [Example 1012, N-(cyanomethyl)-4-(2,3-dihydro-2-oxo-1H-imidazo[4,5-b]pyridin-7-yl)piperazine-1-carboxamide]: the IC50 in assay [3] was over 1 µM.

For the compound `CCC(C)(C#N)NC(=O)n1cc(-c2ccnc3[nH]c(=O)[nH]c23)cn1` (stereo not shown) [Example 1040, N-(2-cyanobutan-2-yl)-4-(2,3-dihydro-2-oxo-1H-imidazo[4,5-b]pyridin-7-yl)-1H-pyrazole-1-carboxamide], the IC50 in assay [4] was over 1 µM.

For `COc1cc(NC(=O)N2CCN(c3ccnc4[nH]c(=O)[nH]c34)CC2)ccn1` [Example 1019, 4-(2,3-dihydro-2-oxo-1H-imidazo[4,5-b]pyridin-7-yl)-N-(2-methoxypyridin-4-yl)piperazine-1-carboxamide], the IC50 in assay [2], in assay [3] and in assay [4] was over 1 µM each time.

Regarding `O=C(NCC(F)(F)F)Nc1cnc(-c2ccnc3[nH]c(=O)[nH]c23)cn1` [Example 1006, 1-(5-(2-oxo-2,3-dihydro-1H-imidazo[4,5-b]pyridin-7-yl)pyrazin-2-yl)-3-(2,2,2-trifluoroethyl)urea], the IC50 in assay [4] is over 1 µM.

On to `OC(c1ccnc(-n2cc(-c3ccnc4[nH]cnc34)cn2)c1)C(F)(F)F` (stereo not shown) [Example 1172, 1-(2-(4-(3H-imidazo[4,5-b]pyridin-7-yl)-1H-pyrazol-1-yl)pyridin-4-yl)-2,2,2-trifluoroethanol], for which the IC50 was under 0.1 µM in assay [3] and over 1 µM in assay [4].
